Results from ChEMBL document CHEMBL4229425, “Discovery and characterization of N-(1,3-dialkyl-1H-indazol-6-yl)-1H-pyrazolo[4,3-b]pyridin-3-amine scaffold as mGlu4 positive allosteric modulators that mitigate CYP1A2 induction liability” (Bioorg Med Chem Lett, 2018).

Tests used:
[1] = target: T1, Metabotropic glutamate receptor 4 (Homo sapiens, UniProt Q14833); assay: Positive allosteric modulation of human mGluR4 expressed in CHO cells co-expressing Gqi5 assessed as increase in glutamate-induced calcium flux preincubated for 2.5 mins followed by glutamate addition by Fluo-4-AM dye based fluorescence assay; type: functional, cell-based
T1 sequence (Q14833 whole entry): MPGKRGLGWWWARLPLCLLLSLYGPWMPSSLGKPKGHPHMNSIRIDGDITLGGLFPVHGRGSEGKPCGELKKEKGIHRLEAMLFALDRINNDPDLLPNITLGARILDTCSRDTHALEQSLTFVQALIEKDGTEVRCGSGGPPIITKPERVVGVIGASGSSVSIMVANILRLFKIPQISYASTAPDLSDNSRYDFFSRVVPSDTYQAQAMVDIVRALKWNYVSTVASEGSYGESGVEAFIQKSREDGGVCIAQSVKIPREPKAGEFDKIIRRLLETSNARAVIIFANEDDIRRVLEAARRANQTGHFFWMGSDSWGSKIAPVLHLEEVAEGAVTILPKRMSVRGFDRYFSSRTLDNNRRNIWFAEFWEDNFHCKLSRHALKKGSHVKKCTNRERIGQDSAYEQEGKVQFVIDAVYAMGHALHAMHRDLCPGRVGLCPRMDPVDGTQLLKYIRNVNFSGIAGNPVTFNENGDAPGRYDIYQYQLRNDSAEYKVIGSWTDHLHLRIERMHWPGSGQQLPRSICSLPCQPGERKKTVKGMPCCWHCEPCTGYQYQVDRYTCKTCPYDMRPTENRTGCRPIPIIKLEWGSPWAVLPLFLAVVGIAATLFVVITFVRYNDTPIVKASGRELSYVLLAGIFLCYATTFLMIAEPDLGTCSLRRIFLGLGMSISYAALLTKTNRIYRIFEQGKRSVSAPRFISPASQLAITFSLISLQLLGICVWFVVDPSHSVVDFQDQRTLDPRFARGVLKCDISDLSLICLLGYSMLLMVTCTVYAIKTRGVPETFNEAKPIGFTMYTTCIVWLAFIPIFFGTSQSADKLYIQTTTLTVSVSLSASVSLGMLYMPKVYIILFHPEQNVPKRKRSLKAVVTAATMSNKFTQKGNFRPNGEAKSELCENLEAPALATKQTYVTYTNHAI

[2] = target: T1, Metabotropic glutamate receptor 4; assay: Positive allosteric modulation of human mGluR4 expressed in CHO cells co-expressing Gqi5 assessed as increase in glutamate-induced calcium flux at 30 uM preincubated for 2.5 mins followed by glutamate addition by Fluo-4-AM dye based fluorescence assay relative to PHCCC; type: functional, cell-based
[3] = Clearance in rat liver microsomes; type: ADME, microsome
[4] = Fraction unbound in human plasma; type: ADME, cell-free
[5] = Fraction unbound in rat plasma; type: ADME, cell-free
Cytochrome P450 1A2 = target: T2, Cytochrome P450 1A2 (Homo sapiens, UniProt P05177); assay: Inhibition of CYP1A2 in human liver microsomes; type: ADME
T2 sequence (P05177 whole entry): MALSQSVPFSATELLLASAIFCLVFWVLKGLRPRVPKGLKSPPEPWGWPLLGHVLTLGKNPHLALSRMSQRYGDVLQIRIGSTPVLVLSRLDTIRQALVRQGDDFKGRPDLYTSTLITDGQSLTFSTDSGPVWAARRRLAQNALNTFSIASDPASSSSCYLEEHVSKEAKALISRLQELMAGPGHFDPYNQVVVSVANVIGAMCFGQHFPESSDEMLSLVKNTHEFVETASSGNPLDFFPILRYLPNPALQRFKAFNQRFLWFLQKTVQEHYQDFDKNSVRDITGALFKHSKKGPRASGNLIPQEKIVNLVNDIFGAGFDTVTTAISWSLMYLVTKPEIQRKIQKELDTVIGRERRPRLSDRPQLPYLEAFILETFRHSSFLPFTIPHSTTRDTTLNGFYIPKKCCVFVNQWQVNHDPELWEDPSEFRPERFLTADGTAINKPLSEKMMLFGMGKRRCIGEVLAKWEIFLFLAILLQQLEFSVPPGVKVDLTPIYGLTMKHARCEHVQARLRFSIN

[6] = target: T3, CYP1A2 (induction through the aryl hydrocarbon receptor, AhR) (Homo sapiens, UniProt P35869); assay: Activation of human AhR assessed as induction of CYP1A2 relative to control; type: ADME; details: read-out: FC
T3 sequence (P35869 whole entry): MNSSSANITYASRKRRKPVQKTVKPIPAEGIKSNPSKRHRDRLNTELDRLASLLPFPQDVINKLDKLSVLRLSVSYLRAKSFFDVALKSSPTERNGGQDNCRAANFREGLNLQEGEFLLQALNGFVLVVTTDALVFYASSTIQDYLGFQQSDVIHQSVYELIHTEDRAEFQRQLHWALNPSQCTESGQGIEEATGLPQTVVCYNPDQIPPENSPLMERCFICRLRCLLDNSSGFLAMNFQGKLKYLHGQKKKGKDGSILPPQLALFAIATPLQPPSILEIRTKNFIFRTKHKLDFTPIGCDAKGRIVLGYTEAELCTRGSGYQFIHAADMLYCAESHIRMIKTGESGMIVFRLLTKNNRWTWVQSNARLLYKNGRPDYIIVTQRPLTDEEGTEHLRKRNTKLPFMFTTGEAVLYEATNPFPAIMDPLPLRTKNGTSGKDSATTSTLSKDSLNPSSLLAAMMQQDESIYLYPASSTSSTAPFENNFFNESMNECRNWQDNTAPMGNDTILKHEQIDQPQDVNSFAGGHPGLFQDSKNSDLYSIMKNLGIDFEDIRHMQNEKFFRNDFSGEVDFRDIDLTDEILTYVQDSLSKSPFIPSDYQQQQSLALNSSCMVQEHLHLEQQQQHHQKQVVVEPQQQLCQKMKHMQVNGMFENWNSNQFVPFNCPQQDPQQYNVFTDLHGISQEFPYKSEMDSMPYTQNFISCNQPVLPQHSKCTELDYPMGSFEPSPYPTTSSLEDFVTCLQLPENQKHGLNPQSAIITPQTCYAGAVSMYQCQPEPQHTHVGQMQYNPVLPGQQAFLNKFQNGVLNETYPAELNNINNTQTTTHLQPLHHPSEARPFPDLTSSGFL

[7] = Plasma concentration in rat at 10 mg/kg, po after 1 hr; type: ADME, organism-based
[8] = Drug uptake in rat brain at 10 mg/kg, po after 1 hr; type: ADME, organism-based; details: read-out: Drug uptake
[9] = Brain to plasma partition coefficient, Kp of the compound in rat at 10 mg/kg, po after 1 hr; type: ADME, organism-based; details: brain and plasma
[10] = Unbound brain to plasma concentration ratio in rat at 10 mg/kg, po after 1 hr; type: ADME, organism-based; details: brain and plasma, read-out: K(p,uu,brain)
MDR1 (P-gp) = assay: Efflux ratio of permeability in MDCK-MDR1 cells; type: ADME, cell-based, Canis lupus familiaris; details: dog

Row | SMILES | EC50 ([1]; read-out: EC50) | Emax [2] | also measured
1 | Cn1nc(C(=O)NC2CC(F)(F)C2)c2ccc(Nc3n[nH]c4cccnc34)cc21 | 116 nM | 52.2% | –
2 | Cn1ncc2cc(Nc3n[nH]c4cccnc34)ccc21 | 870 nM | 110% | CLhep predicted [3]: 40.1 mL/min/kg; fraction unbound [4]: 0.118; fraction unbound [5]: 0.127; IC50 (Cytochrome P450 1A2): 530 nM; fold induction [6]: 28
3 | Cn1ncc2ccc(Nc3n[nH]c4cccnc34)cc21 | 257 nM | 105% | CLhep predicted [3]: 10.7 mL/min/kg; fraction unbound [4]: 0.093; fraction unbound [5]: 0.061; IC50 (Cytochrome P450 1A2): 110 nM; fold induction [6]: 154
4 | CCn1nc(C2CC2)c2ccc(Nc3n[nH]c4ncccc34)cc21 | – | – | Emax ([2]; tested as the 2H-labelled form): 75.7%
5 | Cn1nc(C(=O)N2CCCC2)c2ccc(Nc3n[nH]c4cccnc34)cc21 | 827 nM | 41.6% | –
6 | Cc1nn(C(C)C)c2cc(Nc3n[nH]c4cccnc34)ccc12 | 9890 nM | 62% | –
7 | Cn1nc(OCC2CCCCO2)c2ccc(Nc3n[nH]c4cccnc34)cc21 (centres undefined) | – | 100% | –
8 | Cn1nc(C(=O)N2CCC(F)(F)CC2)c2ccc(Nc3n[nH]c4cccnc34)cc21 | 498 nM | 89.5% | –
9 | CN1CCC(Oc2nn(C)c3cc(Nc4n[nH]c5cccnc45)ccc23)CC1 | 1880 nM | 88.3% | –
10 | Cn1nc(C2(C)CC2)c2ccc(Nc3n[nH]c4cccnc34)cc21 | 67.9 nM | 83.7% | –
11 | CCn1nc(C2CC2)c2ccc(Nc3n[nH]c4cccnc34)cc21 | 1210 nM | 36.2% | Emax ([2]; tested as the 2H-labelled form): 97.4%
12 | CCn1nc(C)c2cc(Nc3n[nH]c4cccnc34)ccc21 | 95.1 nM | 78.3% | –
13 | Cn1nc(C2(C)CC2)c2ccc(Nc3n[nH]c4ncccc34)cc21 | 129 nM | 84% | –
14 | Cn1nnc2ccc(Nc3n[nH]c4cccnc34)cc21 | 1430 nM | 72.4% | –
15 | Cc1nn(CC2CCC2)c2ccc(Nc3n[nH]c4cccnc34)cc12 | 46.8 nM | 93.2% | –
16 | Cn1nc(C(=O)NC2CC(F)C2)c2ccc(Nc3n[nH]c4cccnc34)cc21 (centres undefined) | 794 nM | 74% | –
17 | c1cnc2c(Nc3ccc4c(C5CC5)n[nH]c4c3)n[nH]c2c1 | 452 nM | 76.5% | CLhep predicted [3]: 30.8 mL/min/kg; fraction unbound [4]: 0.031; fraction unbound [5]: 0.014; IC50 (Cytochrome P450 1A2): 280 nM; fold induction [6]: 13.5
18 | Cn1nc(OC2CCOCC2)c2ccc(Nc3n[nH]c4cccnc34)cc21 | – | 85.1% | –
19 | CCc1nn(C)c2cc(Nc3n[nH]c4cccnc34)ccc12 | 37.9 nM | 94.5% | –
20 | Cn1nc(CC(F)(F)F)c2ccc(Nc3n[nH]c4cccnc34)cc21 | 95.5 nM | 62.7% | –
21 | Cn1nc(C(=O)N2CCC(F)(F)C2)c2ccc(Nc3n[nH]c4cccnc34)cc21 | 289 nM | 57.8% | –
22 | Cn1nc(C2CC2)c2ccc(Nc3n[nH]c4nccnc34)cc21 | 19.8 nM | 101% | CLhep predicted [3]: 22.4 mL/min/kg; fraction unbound [4]: 0.03; fraction unbound [5]: 0.035; IC50 (Cytochrome P450 1A2): 480 nM; fold induction [6]: 2.3
23 | [2H]C([2H])([2H])Cn1nc(C2CC2)c2ccc(Nc3n[nH]c4cccnc34)cc21 | 36.2 nM | – | –
24 | Cn1nc(C(F)(F)F)c2ccc(Nc3n[nH]c4cccnc34)cc21 | 119 nM | 77.5% | –

Row | SMILES | EC50 ([1]; read-out: EC50) | Emax [2] | also measured
25 | Cn1nc(C(=O)NC2CCC2)c2ccc(Nc3n[nH]c4cccnc34)cc21 | 653 nM | 70.3% | –
26 | [2H]C([2H])([2H])Cn1nc(C2CC2)c2ccc(Nc3n[nH]c4ncccc34)cc21 | 160 nM | – | –
27 | Cn1nc(C(=O)N2CC[C@H](F)C2)c2ccc(Nc3n[nH]c4cccnc34)cc21 | 764 nM | 55.5% | –
28 | Fc1ccc(Nc2n[nH]c3cccnc23)cc1Cl | – | – | CLhep predicted [3]: 12.1 mL/min/kg; fraction unbound [4]: 0.017; fraction unbound [5]: 0.028; IC50 (Cytochrome P450 1A2): < 100 nM
29 | Cc1nn(C)c2ccc(Nc3n[nH]c4cccnc34)cc12 | 345 nM | 105% | –
30 | Cn1ccc2cc(Nc3n[nH]c4cccnc34)ccc21 | 3590 nM | 83.8% | –
31 | CC(C)COc1nn(C)c2cc(Nc3n[nH]c4cccnc34)ccc12 | – | 86.7% | –
32 | Cc1c2ccc(Nc3n[nH]c4cccnc34)cc2nn1C1CCCC1 | – | – | EC50 ([1]; cho): Not Active
33 | Cn1cnc2ccc(Nc3n[nH]c4cccnc34)cc21 | > 10000 nM | 54.6% | –
34 | Cc1nnc2cc(Nc3n[nH]c4cccnc34)ccn12 | – | – | EC50 ([1]; cho): Not Active
35 | CCn1nc(Cl)c2cc(Nc3n[nH]c4cccnc34)ccc21 | 815 nM | 67% | –
36 | Cn1nc(C(=O)N2CC[C@@H](F)C2)c2ccc(Nc3n[nH]c4cccnc34)cc21 | 907 nM | 41.9% | –
37 | Cc1nn(C2CCCC2)c2ccc(Nc3n[nH]c4cccnc34)cc12 | 265 nM | 93.8% | –
38 | Cc1nn(C)c2cc(Nc3n[nH]c4cccnc34)ccc12 | 78.1 nM | 98% | CLhep predicted [3]: 18.6 mL/min/kg; fraction unbound [4]: 0.058; fraction unbound [5]: 0.089; IC50 (Cytochrome P450 1A2): < 100 nM; fold induction [6]: 25
39 | Cn1nc(C2(C)CC2)c2ccc(Nc3n[nH]c4nccnc34)cc21 | 24.9 nM | 94.8% | –
40 | Cc1c2ccc(Nc3n[nH]c4cccnc34)cc2nn1CC1CCC1 | – | – | EC50 ([1]; cho): Not Active
41 | Cn1nc(C2CC2)c2ncc(Nc3n[nH]c4cccnc34)cc21 | 468 nM | 75% | –
42 | Cn1nc(C2CC2)c2ccc(Nc3n[nH]c4ncccc34)cc21 | 43.2 nM | 94.8% | CLhep predicted [3]: 16.1 mL/min/kg; fraction unbound [4]: 0.03; fraction unbound [5]: 0.031; IC50 (Cytochrome P450 1A2): 2600 nM; fold induction [6]: 2.6
43 | Cn1nc(C2CC2)c2ccc(Nc3n[nH]c4cccnc34)cc21 | 43 nM | 88.7% | CLhep predicted [3]: 21.5 mL/min/kg; fraction unbound [4]: 0.022; fraction unbound [5]: 0.024; IC50 (Cytochrome P450 1A2): 350 nM; fold induction [6]: 2.3; concentration at 1 h [7]: 787 ng/mL; concentration at 1 h [8]: 816 ng/g; Kp at 1 h [9]: 1.04; Kp uu at 1 h [10]: 0.3; efflux ratio (MDR1 (P-gp)): 1.2
44 | CC(C)Oc1nn(C)c2cc(Nc3n[nH]c4cccnc34)ccc12 | – | 70.9% | –
45 | Cc1cc(COc2nn(C)c3cc(Nc4n[nH]c5cccnc45)ccc23)on1 | – | 107% | –
46 | FC(F)(F)Cn1nc(C2CC2)c2ccc(Nc3n[nH]c4cccnc34)cc21 | – | – | EC50 ([1]; cho): Not Active
47 | Cc1nnc2ccc(Nc3n[nH]c4cccnc34)cn12 | – | – | EC50 ([1]; cho): Not Active
